For 25 compounds, T/C results are on record in PubChem BioAssay AID330 (DTP/NCI, 2004).

The experiment concerns P388 leukemia ip, CD2F1 mice, survival T/C. Put plainly: NCI In Vivo Anticancer Drug Screen. Data for tumor model P388 Leukemia (intraperitoneal) in CD2F1 (CDF1) mice. The conditions noted are these: endpoint: median survival time, higher = longer survival. The method, boiled down:
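Mice carrying the transplanted tumor received test compound or vehicle. Survival was recorded in each group, and the value is the treated-group measurement divided by that of the vehicle-treated control group.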

Setting [1] is: dose: 100.0 mg/kg/injection, schedule: Q04DX003 (ip), vehicle: saline.
[2] abbreviates: dose: 200.0 mg/kg/injection, schedule: Q04DX003 (ip), vehicle: saline.
[3] abbreviates: dose: 400.0 mg/kg/injection, schedule: Q04DX003 (ip), vehicle: saline.
Where [4] appears, read: dose: 12.5 mg/kg/injection, schedule: Q01DX009 (ip), vehicle: saline.
[5] abbreviates: dose: 50.0 mg/kg/injection, schedule: Q01DX005 (ip), vehicle: Klucel (hydroxypropylcellulose) (HPC).
Setting [6] is: dose: 100.0 mg/kg/injection, schedule: Q01DX005 (ip), vehicle: Klucel (hydroxypropylcellulose) (HPC).
Setting [7] is: dose: 30.0 mg/kg/injection, schedule: Q01DX005 (ip), vehicle: saline.
The mark [8] stands for this setting: dose: 60.0 mg/kg/injection, schedule: Q01DX005 (ip), vehicle: saline.
[9] abbreviates: dose: 50.0 mg/kg/injection, schedule: Q01DX009 (ip), vehicle: saline with Tween-80.
The mark [10] stands for this setting: dose: 100.0 mg/kg/injection, schedule: Q01DX009 (ip), vehicle: saline with Tween-80.
The mark [11] stands for this setting: dose: 100.0 mg/kg/injection, schedule: Q01DX001 (ip), vehicle: saline with Tween-80.
Setting [12] is: dose: 200.0 mg/kg/injection, schedule: Q01DX001 (ip), vehicle: saline with Tween-80.

Structures are written as SMILES. “And” between values parts separate entries of the source, which are not always exact repeats. Identical values can stand only once. Inconclusive results and toxic doses are left out.

In the case of `COC(=O)C(C(=O)OC)=S1C=CC=C1`, the T/C runs as follows: under setting [1], 106 % of control; under setting [2], 100 % of control; under setting [3], 106 % of control.

Consider `CCn1c2[n+](c3ccccc31)CCC2`, for which the T/C by setting is: (dose: 3.12 mg/kg/injection, schedule: Q01DX009 (ip), vehicle: saline) 114 % of control; (dose: 6.25 mg/kg/injection, schedule: Q01DX009 (ip), vehicle: saline) 113 % of control; under setting [4], 114 % of control.

Turning to `Cc1coc2c1CC1OC1(C)CCC1OC1(C)C2` (configuration not stated), the T/C reads like this: (dose: 12.5 mg/kg/injection, schedule: Q01DX005 (ip), vehicle: Klucel + Tween-80) 96 % of control; (dose: 25.0 mg/kg/injection, schedule: Q01DX005 (ip), vehicle: Klucel + Tween-80) 98 % of control; (dose: 50.0 mg/kg/injection, schedule: Q01DX005 (ip), vehicle: Klucel + Tween-80) 99 % of control; (dose: 100.0 mg/kg/injection, schedule: Q01DX005 (ip), vehicle: Klucel + Tween-80) 106 % of control.

In the case of `COc1cc(C(N)CCc2ccc3c(c2)OCO3)cc(OC)c1OC` (configuration not stated), the T/C was 110 % of control under setting [5] and 98 % of control under setting [6].

As to `CCC(=N)C(c1ccccc1)(c1ccccc1)C(C)CN(C)C` (configuration not stated), the T/C by setting is: (dose: 15.0 mg/kg/injection, schedule: Q01DX005 (ip), vehicle: saline) 101 % of control; under setting [7], 101 % of control; under setting [8], 100 % of control.

For the compound `CCOc1cc2c(cc1C(C)c1ccccc1)OCO2` (configuration not stated), the T/C was 108 % of control (dose: 50.0 mg/kg/injection, schedule: Q01DX005 (ip), vehicle: saline with Tween-80); 101 % of control (dose: 100.0 mg/kg/injection, schedule: Q01DX005 (ip), vehicle: saline with Tween-80); 101 % of control (dose: 200.0 mg/kg/injection, schedule: Q01DX005 (ip), vehicle: saline with Tween-80).

For `CCC(c1ccc(OC)cc1)C(CC)c1ccc(O)c(CN2CCN(C)CC2)c1` (configuration not stated), the T/C runs as follows: (dose: 25.0 mg/kg/injection, schedule: Q01DX009 (ip), vehicle: saline with Tween-80) 123 % of control; under setting [9], 119 % of control; under setting [10], 119 % of control.

Take `Cc1ccc(S(=O)CC#CC#CCS(=O)c2ccc(C)cc2)cc1` (configuration not stated): the T/C (dose: 50.0 mg/kg/injection, schedule: Q01DX001 (ip), vehicle: saline with Tween-80) is 93 % of control; the T/C under setting [11] was 97 % of control; the T/C under setting [12] was 101 % of control.

Regarding `CC(=O)Nc1ccc(S(=O)(=O)Oc2noc3ccccc23)cc1`, the T/C runs as follows: under setting [5], 108 % of control; under setting [6], 96 % of control; (dose: 200.0 mg/kg/injection, schedule: Q01DX005 (ip), vehicle: Klucel (hydroxypropylcellulose) (HPC)) 102 % of control.

In the case of `Fc1ccc(-c2cc(-c3cc(-c4ccc(F)cc4)n[nH]3)[nH]n2)cc1`, the T/C runs as follows: (dose: 60.0 mg/kg/injection, schedule: Q01DX005 (ip), vehicle: Klucel + Tween-80) 91 % of control; (dose: 120.0 mg/kg/injection, schedule: Q01DX005 (ip), vehicle: Klucel + Tween-80) 88 % of control; (dose: 240.0 mg/kg/injection, schedule: Q01DX005 (ip), vehicle: Klucel + Tween-80) 88 % of control.

Consider `COc1ccccc1C1NC(c2ccccc2OC)C2CCCC1C2` (configuration not stated), for which the T/C by setting is: under setting [1], 91 % of control; under setting [2], 90 % of control; under setting [3], 88 % of control.

Consider `O=C(CCN1CCCC1)c1ccccc1`, for which the T/C reads like this: under setting [4], 98 % of control; (dose: 25.0 mg/kg/injection, schedule: Q01DX009 (ip), vehicle: saline) 100 % of control; (dose: 50.0 mg/kg/injection, schedule: Q01DX009 (ip), vehicle: saline) 100 % of control.

Regarding `C=CC(C)C(O)C(=O)OC` (configuration not stated), the T/C under setting [11] was 98 % of control; the T/C under setting [12] was 110 % of control; the T/C (dose: 400.0 mg/kg/injection, schedule: Q01DX001 (ip), vehicle: saline with Tween-80) was 103 % of control.

Regarding `O=C(Nc1ccc(Cl)cc1)NN1CCCCCC1`, the T/C is 103 % of control (dose: 25.0 mg/kg/injection, schedule: Q04DX002 (ip), vehicle: saline with Tween-80) and 98 % of control (dose: 50.0 mg/kg/injection, schedule: Q04DX002 (ip), vehicle: saline with Tween-80).

Regarding `CN(CN1C(=O)CCC1=O)CN1C(=O)CCC1=O`, the T/C runs as follows: under setting [7], 106 % of control; under setting [8], 106 % of control and 110 % of control; (dose: 120.0 mg/kg/injection, schedule: Q01DX005 (ip), vehicle: saline) 108 % of control; (dose: 240.0 mg/kg/injection, schedule: Q01DX005 (ip), vehicle: saline) 119 % of control.

Consider `CC1C(N)CC2CC1C2(C)C` (configuration not stated), for which the T/C was 104 % of control under setting [9] and 112 % of control under setting [10].

For the compound `CC(=O)N1C2=CCCC3CCCCC23c2ccccc21` (configuration not stated), the T/C by setting is: under setting [9], 98 % of control; under setting [10], 93 % of control; (dose: 200.0 mg/kg/injection, schedule: Q01DX009 (ip), vehicle: saline with Tween-80) 89 % of control; (dose: 400.0 mg/kg/injection, schedule: Q01DX009 (ip), vehicle: saline with Tween-80) 95 % of control.

Turning to `CCOC1(C(C)O)CC(c2ccccc2)=NO1` (configuration not stated), the T/C (dose: 60.0 mg/kg/injection, schedule: Q01DX005 (ip), vehicle: saline with Tween-80) was 108 % of control; the T/C (dose: 120.0 mg/kg/injection, schedule: Q01DX005 (ip), vehicle: saline with Tween-80) was 101 % of control; the T/C (dose: 240.0 mg/kg/injection, schedule: Q01DX005 (ip), vehicle: saline with Tween-80) is 100 % of control.

Regarding `CC1=CCC2(C)CCC(C(C)C)C2(O)CC1` (configuration not stated), the T/C (dose: 50.0 mg/kg/injection, schedule: Q04DX003 (ip), vehicle: saline) is 104 % of control; the T/C under setting [1] was 90 % of control; the T/C under setting [2] was 100 % of control.

As for `CC(C)C(=NC1CCCCC1)NC(C)(C)C`, the T/C reads like this: under setting [9], 93 % of control; under setting [10], 99 % of control.

Take `CCOCC(=O)N[C@H]1CCc2cc(OC)c(OC)c(OC)c2-c2ccc(SC)c(=O)cc21`: the T/C runs as follows: (dose: 0.75 mg/kg/injection, schedule: Q01DX009 (ip), vehicle: Klucel (hydroxypropylcellulose) (HPC)) 158 % of control and 161 % of control; (dose: 1.5 mg/kg/injection, schedule: Q01DX009 (ip), vehicle: Klucel (hydroxypropylcellulose) (HPC)) 193 % of control and 229 % of control.

For `[Cl][Pt+2][Cl].[NH-]C1CCCC1.[NH-]C1CCCC1`, the T/C reads like this: (dose: 20.0 mg/kg/injection, schedule: Q01DX009 (ip), vehicle: Klucel (hydroxypropylcellulose) (HPC)) 156 % of control and 169 % of control; (dose: 40.0 mg/kg/injection, schedule: Q01DX009 (ip), vehicle: Klucel (hydroxypropylcellulose) (HPC)) 156 % of control and 168 % of control and 175 % of control; (dose: 80.0 mg/kg/injection, schedule: Q01DX009 (ip), vehicle: Klucel (hydroxypropylcellulose) (HPC)) 179 % of control and 193 % of control and 220 % of control; (dose: 160.0 mg/kg/injection, schedule: Q01DX009 (ip), vehicle: Klucel (hydroxypropylcellulose) (HPC)) 182 % of control and 233 % of control; (dose: 320.0 mg/kg/injection, schedule: Q01DX009 (ip), vehicle: Klucel (hydroxypropylcellulose) (HPC)) 110 % of control and 186 % of control and 229 % of control.

Turning to `NCC(=O)O.[Cl][Ga]([Cl])[Cl]`, the T/C is 110 % of control (dose: 66.0 mg/kg/injection, schedule: Q01DX009 (ip), vehicle: saline); 110 % of control (dose: 100.0 mg/kg/injection, schedule: Q01DX009 (ip), vehicle: saline); 104 % of control (dose: 100.0 mg/kg/injection, schedule: Q04DX003 (ip), vehicle: saline sonified); 120 % of control (dose: 150.0 mg/kg/injection, schedule: Q01DX009 (ip), vehicle: saline).

`CS(=O)(=O)N/N=C/C(=O)O`: the T/C runs as follows: (dose: 12.5 mg/kg/injection, schedule: Q01DX009 (ip), vehicle: water) 118 % of control; (dose: 50.0 mg/kg/injection, schedule: Q01DX009 (ip), vehicle: water) 160 % of control; (dose: 100.0 mg/kg/injection, schedule: Q01DX009 (ip), vehicle: water) 157 % of control and 159 % of control.

As for `c1ccc(CN2CSC3CCCCC32)cc1` (configuration not stated), the T/C (dose: 25.0 mg/kg/injection, schedule: Q01DX005 (ip), vehicle: saline) was 102 % of control; the T/C (dose: 50.0 mg/kg/injection, schedule: Q01DX005 (ip), vehicle: saline) is 109 % of control and 110 % of control; the T/C (dose: 100.0 mg/kg/injection, schedule: Q01DX005 (ip), vehicle: saline) was 107 % of control and 118 % of control; the T/C (dose: 200.0 mg/kg/injection, schedule: Q01DX005 (ip), vehicle: saline) was 120 % of control.
